Measurements from US20210071229A1, “FIBRINOGEN TEST” (DSM IP Assets B.V., priority 2018, published 2021).
“And” between values parts separate entries of the source, which are not always exact repeats. Equal values may be shown once. Read-outs that look alike come from different tables or passages of the source.

Tests used:
batroxobin = batroxobin (Bothrops atrox, UniProt P04971); format: biochemical, Bothrops moojeni
control plasma [1] = assay: activated Partial Thromboplastin Time (aPTT) clotting test, spiked control plasma, BCS-XP; format: biochemical
control plasma [2] = system: control plasma

Chain of batroxobin (P04971 25-255 limits assumed): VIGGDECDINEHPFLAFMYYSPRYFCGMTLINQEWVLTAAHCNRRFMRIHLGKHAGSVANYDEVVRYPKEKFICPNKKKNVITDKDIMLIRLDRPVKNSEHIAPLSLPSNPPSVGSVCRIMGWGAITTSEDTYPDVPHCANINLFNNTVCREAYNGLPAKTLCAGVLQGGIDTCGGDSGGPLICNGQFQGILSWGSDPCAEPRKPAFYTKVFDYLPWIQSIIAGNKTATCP

Compound: NCCCCCC(=O)O [6-aminocaproic acid]
- effect on enzyme activity of batroxobin vs untreated control (batroxobin): did not significantly influence the activity
- predicted Vmax and Km vs untreated control (batroxobin): not significantly different

Compound: CC1CNc2c(cccc2S(=O)(=O)N[C@@H](CCCNC(=N)N)C(=O)N2CC[C@@H](C)C[C@@H]2C(=O)O)C1 (some centres unmarked) [Argatroban]
- effect on Vmax of batroxobin-Pefachrome TH substrate (batroxobin): very slight reduction
- effect on enzyme activity of batroxobin (batroxobin): did not significantly suppress
- effect on Km of batroxobin-Pefachrome TH substrate (batroxobin; 0.13-2.0 μg/mL): not significantly affected
- aPTT-test CT (control plasma [1]; 0.13 μg/ml in plasma): 34.62 s
- aPTT-test Mean (control plasma [1]; 0.13 μg/ml in plasma): 34.62 s
- aPTT-test delay (control plasma [1]; 0.13 μg/ml in plasma): 8%
- aPTT-test CT (control plasma [1]; 2.0 μg/ml in plasma): 55.77 s and 55.46 s
- aPTT-test Mean (control plasma [1]; 2.0 μg/ml in plasma): 55.62 s
- aPTT-test delay (control plasma [1]; 2.0 μg/ml in plasma): 73%
- PT-test CT (control plasma [2]; 0.13 μg/ml in plasma): 10.18 s and 10.21 s
- PT-test Mean (control plasma [2]; 0.13 μg/ml in plasma): 10.20 s
- PT-test delay (control plasma [2]; 0.13 μg/ml in plasma): 1%
- PT-test CT (control plasma [2]; 2.0 μg/ml in plasma): 12.26 s and 12.24 s
- PT-test Mean (control plasma [2]; 2.0 μg/ml in plasma): 12.25 s
- PT-test delay (control plasma [2]; 2.0 μg/ml in plasma): 22%

Compound: [H]/N=C(/N)c1ccc(NCc2nc3cc(C(=O)N(CCC(=O)O)c4ccccn4)ccc3n2C)cc1 [Dabigatran]
- effect on Km of batroxobin-Pefachrome TH substrate (batroxobin; 31-500 ng/mL): not significantly affected

Compound: O=C(O)CN(CCN(CC(=O)O)CC(=O)O)CC(=O)O [EDTA]
- interference in batroxobin-Pefachrome TH reaction (batroxobin): failed to see significant interference

Compound: O=C(NC[C@H]1CN(c2ccc(N3CCOCC3=O)cc2)C(=O)O1)c1ccc(Cl)s1 [Rivaroxaban]
- effect on Vmax of batroxobin-Pefachrome TH substrate (batroxobin): very slight reduction
- effect on enzyme activity of batroxobin (batroxobin): did not significantly suppress
- effect on Km of batroxobin-Pefachrome TH substrate (batroxobin; 38-600 ng/mL): not significantly affected
- aPTT-test CT (control plasma [1]; 38 ng/ml in plasma): 39.46 s and 39.44 s
- aPTT-test Mean (control plasma [1]; 38 ng/ml in plasma): 39.45 s
- aPTT-test delay (control plasma [1]; 38 ng/ml in plasma): 23%
- aPTT-test CT (control plasma [1]; 600 ng/ml in plasma): 80.73 s and 80.07 s
- aPTT-test Mean (control plasma [1]; 600 ng/ml in plasma): 80.40 s
- aPTT-test delay (control plasma [1]; 600 ng/ml in plasma): 150%
- PT-test CT (control plasma [2]; 38 ng/ml in plasma): 10.74 s and 10.61 s
- PT-test Mean (control plasma [2]; 38 ng/ml in plasma): 10.68 s
- PT-test delay (control plasma [2]; 38 ng/ml in plasma): 6%
- PT-test CT (control plasma [2]; 600 ng/ml in plasma): 19.42 s and 19.32 s
- PT-test Mean (control plasma [2]; 600 ng/ml in plasma): 19.37 s
- PT-test delay (control plasma [2]; 600 ng/ml in plasma): 92%

Compound: aprotinin
- effect on enzyme activity of batroxobin vs untreated control (batroxobin): did not significantly influence the activity
- predicted Vmax and Km vs untreated control (batroxobin): not significantly different

Compound: hirudin
- interference in batroxobin-Pefachrome TH reaction (batroxobin): failed to see significant interference

Compound: hydroxyethyl starch [HES]
- interference in batroxobin-Pefachrome TH reaction (batroxobin): failed to see significant interference
